# Measured values reported in ChEMBL document CHEMBL5726715 (2018).
# Target: T1, 3-phosphoinositide-dependent protein kinase 1 (Homo sapiens, UniProt O15530)
# T1 sequence (O15530 whole entry): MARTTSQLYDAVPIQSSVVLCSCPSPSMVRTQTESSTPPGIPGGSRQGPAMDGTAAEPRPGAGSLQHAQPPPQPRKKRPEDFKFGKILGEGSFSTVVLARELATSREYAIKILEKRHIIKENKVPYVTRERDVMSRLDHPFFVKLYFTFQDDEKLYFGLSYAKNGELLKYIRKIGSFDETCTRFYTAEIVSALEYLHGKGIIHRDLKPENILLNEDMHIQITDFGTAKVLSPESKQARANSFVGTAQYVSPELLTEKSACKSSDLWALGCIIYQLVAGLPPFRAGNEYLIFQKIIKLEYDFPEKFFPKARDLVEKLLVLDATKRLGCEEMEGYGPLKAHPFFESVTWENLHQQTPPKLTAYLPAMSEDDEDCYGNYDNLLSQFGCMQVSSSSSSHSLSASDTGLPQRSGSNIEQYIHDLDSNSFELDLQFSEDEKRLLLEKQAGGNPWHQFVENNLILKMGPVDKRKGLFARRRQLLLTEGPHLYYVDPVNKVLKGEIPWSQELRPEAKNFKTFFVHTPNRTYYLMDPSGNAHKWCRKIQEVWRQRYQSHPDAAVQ
# Assay: Kinase Assay: A PDK1 kinase assay was performed as follows. […] PDK1 protein was divided into two fractions, one of which was subsequently dephosphorylated. To generate dephosphorylated PDK1, the PDK1 was reacted with GST-tagged lambda-phosphatase in vitro. GST was subsequently cleaved proteolytically for both phosphorylated and dephosphorylated PDK1. Protein preparations were run on glutathione Sepharose columns to remove GST and GST-tagged lambda-phosphatase, if present. […] Enzyme activity was determined in a coupled PDK1/AKT/FAM-crosstide assay using either phosphorylated or unphosphorylated PDK1 and phosphorylation of FAM-crosstide was determined by standard IMAP protocol (Molecular Devices). For inhibition studies, compounds were titrated 3-fold in DMSO and diluted 40-fold into assay buffer (10 mM Tris HCl pH7.2; 10 mM MgCl2; 0.01% Triton X-100; 1 mM DTT) containing PDK1, AKT2, and FAM-crosstide. […] To detect assay product, the kinase reaction was combined with Progressive Binding Solution (1:600 Progressive Binding Reagent, 50% Buffer A, 50% Buffer B, Molecular Devices) in a 1:3 ratio.
row,Structure (SMILES),IC50 [nM]
1,C[C@H](COc1ccc2[nH]c(=O)[nH]c2c1)NC(=O)c1cccn(Cc2cc(F)c(F)c(F)c2)c1=O,< 500
2,O=C(NCc1cncc(-c2c[nH]c3ncccc23)c1)c1cccn(Cc2ccc(F)c(F)c2)c1=O,< 500
3,O=C(NC/C=C/c1ccc2[nH]c(=O)[nH]c2c1)c1cccn(Cc2cc(F)c(F)c(F)c2)c1=O,< 500
4,O=C(NCc1cccc(-c2c[nH]c3ncccc23)c1)c1cccn(Cc2ccc(C(F)(F)F)cc2)c1=O,< 500
5,Nc1ncnc2ccc(-c3ccc(CNC(=O)c4cccn(Cc5ccc(F)c(F)c5)c4=O)s3)cc12,< 500
6,O=C(NCc1ccc(OCCN2CCOCC2)c(-c2c[nH]c3ncccc23)c1)c1cccn(Cc2ccc(F)c(F)c2)c1=O,< 500
7,NC(=O)COc1cc(CNC(=O)c2cccn(Cc3ccc(F)c(F)c3)c2=O)cc(-c2c[nH]c3ncccc23)c1,< 500
8,O=C(NCc1cccc(-c2c[nH]c3nccc(F)c23)c1)c1cccn(Cc2ccc(F)c(F)c2)c1=O,< 500
9,C=C[C@H](COc1ccc2[nH]c(=O)[nH]c2c1)NC(=O)c1cccn(Cc2cc(F)c(F)c(F)c2)c1=O,< 500
10,NC(=O)c1cc(-c2cccc(CNC(=O)c3cccn(Cc4ccc(F)c(F)c4)c3=O)c2)c[nH]1,< 500
11,O=C(NCc1noc(-c2c[nH]c3ncccc23)n1)c1cc(Cl)cn(Cc2ccc(C(F)(F)F)cc2)c1=O,< 500
12,Cc1[nH]c2ncccc2c1-c1cccc(CNC(=O)c2cccn(Cc3ccc(F)c(F)c3)c2=O)c1,< 500
13,O=C(N[C@@H](COc1ccc2[nH]c(=O)[nH]c2c1)C1CC1)c1cccn(Cc2cc(F)c(F)c(F)c2)c1=O,< 500
14,O=C(Nc1ccnc2ccc(-c3c[nH]c4ncccc34)cc12)c1cccn(Cc2ccc(F)c(F)c2)c1=O,< 500
15,O=C(NCc1cc(OC2CCCC2)cc(-c2c[nH]c3ncccc23)c1)c1cccn(Cc2ccc(F)c(F)c2)c1=O,< 500
16,Cn1nc(NC(=O)c2cccn(Cc3ccc(F)c(F)c3)c2=O)c2cc(-c3c[nH]c4ncccc34)ccc21,< 500
17,CN(C)C(=O)COc1cc(CNC(=O)c2cccn(Cc3ccc(F)c(F)c3)c2=O)cc(-c2c[nH]c3ncccc23)c1,< 500
18,NC(=O)[C@H](COc1ccc2[nH]c(=O)[nH]c2c1)NC(=O)c1cccn(Cc2cc(F)c(F)c(F)c2)c1=O,< 500
19,O=C(O)Cn1nc(NC(=O)c2cccn(Cc3ccc(F)c(F)c3)c2=O)c2cc(-c3c[nH]c4ncccc34)ccc21,< 500
20,Nc1ncnc2ccc(-c3cccc(CNC(=O)c4cccn(Cc5ccc(F)c(F)c5)c4=O)c3)cc12,< 500
21,O=C(NCc1cc(-c2c[nH]c3ncccc23)ccc1O)c1cccn(Cc2ccc(F)c(F)c2)c1=O,< 500
22,COc1ccc(CNC(=O)c2cccn(Cc3ccc(F)c(F)c3)c2=O)cc1-c1c[nH]c2ncccc12,< 500
23,CN1CCC(Oc2cc(CNC(=O)c3cccn(Cc4ccc(F)c(F)c4)c3=O)cc(-c3c[nH]c4ncccc34)c2)CC1,< 500
24,O=C(O)c1cc(-c2c[nH]c3ncccc23)cc(CNC(=O)c2cccn(Cc3ccc(F)c(F)c3)c2=O)n1,< 500
25,O=C(NCc1ccc(O)c(-c2c[nH]c3ncccc23)c1)c1cccn(Cc2ccc(F)c(F)c2)c1=O,< 500
26,CC(=O)NC[C@@H](NC(=O)c1cccn(Cc2ccc(F)c(F)c2)c1=O)c1nc(-c2c[nH]c3ncccc23)cs1,< 500

row,Structure (SMILES),IC50 [nM]
1,CC(C)(C)OC(=O)N1CCC(Oc2cc(CNC(=O)c3cccn(Cc4ccc(F)c(F)c4)c3=O)cc(-c3c[nH]c4ncccc34)c2)CC1,< 500
2,O=C(NCc1cc(OC2CCCCC2)cc(-c2c[nH]c3ncccc23)c1)c1cccn(Cc2ccc(F)c(F)c2)c1=O,< 500
3,COc1cnc2[nH]cc(-c3cccc(CNC(=O)c4cccn(Cc5ccc(F)c(F)c5)c4=O)c3)c2c1,< 500
4,O=C(NC1CC1)c1cnc2[nH]cc(-c3cccc(CNC(=O)c4cccn(Cc5ccc(F)c(F)c5)c4=O)c3)c2c1,< 500
5,O=C(NCc1cc(-c2c[nH]c3ncccc23)cc[n+]1[O-])c1cccn(Cc2ccc(F)c(F)c2)c1=O,< 500
6,O=C(NCc1cccc(-c2c[nH]c3ncc(O)cc23)c1)c1cccn(Cc2ccc(F)c(F)c2)c1=O,< 500
7,CCn1nc(NC(=O)c2cccn(Cc3ccc(F)c(F)c3)c2=O)c2cc(-c3c[nH]c4ncccc34)ccc21,< 500
8,O=C(NCc1cc(OC2CCNCC2)cc(-c2c[nH]c3ncccc23)c1)c1cccn(Cc2ccc(F)c(F)c2)c1=O,< 500
9,O=C(NCc1cc(OS(=O)(=O)c2ccccc2)cc(-c2c[nH]c3ncccc23)c1)c1cccn(Cc2ccc(F)c(F)c2)c1=O,< 500
10,O=C(NCc1cccc(-c2c[nH]c(C(=O)N3CCOCC3)c2)c1)c1cccn(Cc2ccc(F)c(F)c2)c1=O,< 500
11,COc1ccc(-c2c[nH]c3ncccc23)cc1CNC(=O)c1cccn(Cc2ccc(F)c(F)c2)c1=O,< 500
12,O=C(NCCOc1ccc2[nH]c(=O)[nH]c2c1F)c1cccn(Cc2ccc(F)c(F)c2)c1=O,< 500
13,O=C(NCc1cccc(-c2c[nH]c3ncc(C(=O)N4CCOCC4)cc23)c1)c1cccn(Cc2ccc(F)c(F)c2)c1=O,< 500
14,COc1cnc2[nH]cc(-c3ccc(CNC(=O)c4cccn(Cc5ccc(F)c(F)c5)c4=O)s3)c2c1,< 500
15,CS(=O)(=O)N1CCC(Oc2cc(CNC(=O)c3cccn(Cc4ccc(F)c(F)c4)c3=O)cc(-c3c[nH]c4ncccc34)c2)CC1,< 500
16,CNC(=O)c1cc(-c2cccc(CNC(=O)c3cccn(Cc4ccc(F)c(F)c4)c3=O)c2)c[nH]1,< 500
17,O=C(NCc1cccc(-c2c[nH]c3ncc(C(=O)N4CCNCC4)cc23)c1)c1cccn(Cc2ccc(F)c(F)c2)c1=O,< 500
18,O=C(NCc1noc(-c2c[nH]c3ncccc23)n1)c1cccn(Cc2cc(F)c(F)c(F)c2)c1=O,< 500
19,O=C(N[C@@H](COc1ccc2[nH]c(=O)[nH]c2c1)c1ccccc1Cl)c1cccn(Cc2cc(F)c(F)c(F)c2)c1=O,< 500
20,O=C(NCc1coc(-c2c[nH]c3ncccc23)n1)c1cccn(Cc2ccc(F)c(F)c2)c1=O,< 500
21,O=C(NCc1noc(-c2c[nH]c3ncccc23)n1)c1cccn(Cc2ccc(F)c(F)c2)c1=O,< 500
22,O=C(NCc1cccc(-c2c[nH]c3ncc(C(F)(F)F)cc23)c1)c1cccn(Cc2ccc(F)c(F)c2)c1=O,< 500
23,CC(C)Oc1cc(CNC(=O)c2cccn(Cc3cc(F)c(F)c(F)c3)c2=O)cc(-c2c[nH]c3ncccc23)c1,< 500
24,O=C(NCc1cc(OCC(O)CO)cc(-c2c[nH]c3ncccc23)c1)c1cccn(Cc2ccc(F)c(F)c2)c1=O (configuration not stated),< 500
25,NC(=O)c1cc(-c2c[nH]c3ncccc23)cc(CNC(=O)c2cccn(Cc3ccc(F)c(F)c3)c2=O)n1,< 500
26,CC(c1ccc(C(F)(F)F)cc1)n1cccc(C(=O)NCc2noc(-c3c[nH]c4ncccc34)n2)c1=O (configuration not stated),< 500
